Laboratory results as given in patent US9995734B2, “Human T cell line assay for evaluating the immunologic identity of glatiramer acetate preparations” (Mylan Inc., priority 2013, dated 2018).

System: Donor 1 COP T-Cell Lines
Assay: Multiplex bead cytokine assay (FlowCytoMix), Donor 1 COP T-cell lines
Assay type: cell-based, human
In short: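 Supernatant from donor 1 COP T-cell lines cultured with autologous EBV-transformed B-LCL was sampled mostly 18–24 h after adding antigen (1, 3 or 10 μg/mL GMA or COP; no-antigen and MBP controls). Cytokines were quantified simultaneously with anti-cytokine antibody beads, detected by PE-conjugated antibody fluorescence at 585 nm.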

[1] = 222-1C5, 1 μg/mL, 24 hours after Day 56 restimulation
[2] = 222-1C5, 3 μg/mL, 24 hours after Day 56 restimulation
[3] = 222-1C5, 10 μg/mL, 24 hours after Day 56 restimulation
[4] = 222-1C5, 10 μg/mL, Day 34 supernatants
[5] = 222-1H12, 10 μg/mL, Day 34 supernatants
[6] = 222-2B8, 1 μg/mL, 24 hours after Day 56 restimulation
[7] = 222-2B8, 3 μg/mL, 24 hours after Day 56 restimulation
[8] = 222-2B8, 10 μg/mL, 24 hours after Day 56 restimulation
[9] = 222-2D2, 10 μg/mL, Day 34 supernatants
[10] = 222-2D8, 10 μg/mL, Day 34 supernatants
[11] = 222-2E1, 1 μg/mL, 24 hours after Day 56 restimulation
[12] = 222-2E1, 3 μg/mL, 24 hours after Day 56 restimulation
[13] = 222-2E1, 10 μg/mL, 24 hours after Day 56 restimulation
[14] = 222-B11 (so in the source), 1 μg/mL, 24 hours after Day 56 restimulation
[15] = 222-B11 (so in the source), 3 μg/mL, 24 hours after Day 56 restimulation
[16] = 222-B11 (so in the source), 10 μg/mL, 24 hours after Day 56 restimulation

glatiramer acetate [COP]
IFN-γ [1]: 158 pg/mL | IL-2 [1]: 0 pg/mL | IL-5 [1]: 0 pg/mL | IL-10 [1]: 11 pg/mL | IL-13 [1]: 129 pg/mL | IL-22 [1]: 0 pg/mL | TNF-α [1]: 11 pg/mL | IFN-γ [2]: 256 pg/mL | IL-2 [2]: 0 pg/mL | IL-5 [2]: 0 pg/mL | IL-10 [2]: 16 pg/mL | IL-13 [2]: 254 pg/mL | IL-22 [2]: 32 pg/mL | TNF-α [2]: 42 pg/mL | IFN-γ [3]: 585 pg/mL | IL-2 [3]: 40 pg/mL | IL-5 [3]: 0 pg/mL | IL-10 [3]: 49 pg/mL | IL-13 [3]: 837 pg/mL | IL-22 [3]: 42 pg/mL | TNF-α [3]: 42 pg/mL | IFN-γ [4]: 416.83 pg/mL | IL-1β [4]: <= 0 pg/mL | IL-2 [4]: <= 0 pg/mL | IL-5 [4]: 56.39 pg/mL | IL-8 [4]: <= 0 pg/mL | IL-10 [4]: 50.58 pg/mL | TNF-α [4]: <= 0 pg/mL | TNF-β [4]: 15.34 pg/mL | IFN-γ [5]: 3626 pg/mL | IL-1β [5]: 59 pg/mL | IL-2 [5]: 0 pg/mL | IL-4 [5]: 0 pg/mL | IL-5 [5]: 398 pg/mL | IL-10 [5]: 240 pg/mL | TNF-α [5]: 22 pg/mL | TNF-β [5]: 98 pg/mL | IFN-γ [6]: 8.46 pg/mL | IL-2 [6]: 0 pg/mL | IL-5 [6]: 0 pg/mL | IL-10 [6]: 2.99 pg/mL | IL-13 [6]: 204.31 pg/mL | IL-22 [6]: 83.01 pg/mL | TNF-α [6]: 0 pg/mL | IFN-γ [7]: 39.91 pg/mL | IL-2 [7]: 19.65 pg/mL | IL-5 [7]: 30.3 pg/mL | IL-10 [7]: 2.83 pg/mL | IL-13 [7]: 1028.23 pg/mL | IL-22 [7]: 77.82 pg/mL | TNF-α [7]: 0 pg/mL | IFN-γ [8]: 119.12 pg/mL | IL-2 [8]: 0 pg/mL | IL-5 [8]: 314.77 pg/mL | IL-10 [8]: 36.16 pg/mL | IL-13 [8]: 2825.8 pg/mL | IL-22 [8]: 143.57 pg/mL | TNF-α [8]: 91.29 pg/mL | IFN-γ [9]: 120 pg/mL | IL-1β [9]: 130.9 pg/mL | IL-2 [9]: 210.47 pg/mL | IL-5 [9]: 38.13 pg/mL | IL-8 [9]: 0.85 pg/mL | IL-10 [9]: 45.09 pg/mL | TNF-α [9]: 30.87 pg/mL | TNF-β [9]: 23.15 pg/mL | IL-4, IL-6, or IL-12 detected (222-2D8, 222-1H12, 222-1C5, 222-2D2, Day 34 supernatants): Little or no | IFN-γ [10]: 3296 pg/mL | IL-1β [10]: 2535 pg/mL | IL-2 [10]: 0 pg/mL | IL-4 [10]: 0 pg/mL | IL-5 [10]: 1587 pg/mL | IL-10 [10]: 100 pg/mL | TNF-α [10]: 493 pg/mL | TNF-β [10]: 267 pg/mL | IFN-γ [11]: 53.73 pg/mL | IL-2 [11]: 26.46 pg/mL | IL-5 [11]: 0 pg/mL | IL-10 [11]: 5.3 pg/mL | IL-13 [11]: 165.79 pg/mL | IL-22 [11]: 72.54 pg/mL | TNF-α [11]: 25.28 pg/mL | IFN-γ [12]: 163.61 pg/mL | IL-2 [12]: 40.39 pg/mL | IL-5 [12]: 0 pg/mL | IL-10 [12]: 12.19 pg/mL | IL-13 [12]: 1037.93 pg/mL | IL-22 [12]: 40.37 pg/mL | TNF-α [12]: 0 pg/mL | IFN-γ [13]: 405.26 pg/mL | IL-2 [13]: 0 pg/mL | IL-5 [13]: 106.24 pg/mL | IL-10 [13]: 22 pg/mL | IL-13 [13]: 2046.94 pg/mL | IL-22 [13]: 60.95 pg/mL | TNF-α [13]: 333.22 pg/mL | IFN-γ [14]: 0.65 pg/mL | IL-2 [14]: 63.02 pg/mL | IL-5 [14]: 0 pg/mL | IL-10 [14]: 0 pg/mL | IL-13 [14]: 47.69 pg/mL | IL-22 [14]: 69.37 pg/mL | TNF-α [14]: 0 pg/mL | IFN-γ [15]: 0 pg/mL | IL-2 [15]: 0 pg/mL | IL-5 [15]: 0 pg/mL | IL-10 [15]: 0 pg/mL | IL-13 [15]: 105.51 pg/mL | IL-22 [15]: 45.67 pg/mL | TNF-α [15]: 0 pg/mL | IFN-γ [16]: 47.35 pg/mL | IL-2 [16]: 0 pg/mL | IL-5 [16]: 119 pg/mL | IL-10 [16]: 11.27 pg/mL | IL-13 [16]: 1839.63 pg/mL | IL-22 [16]: 19.45 pg/mL | TNF-α [16]: 13.51 pg/mL | IFN-γ production (Line 105 (so in the source), Table 14 = 222-1C5, after appropriate dilution of supernatants): comparable amounts
